# Results as given in the supplement of paper PMC4858399.
# Experiments:
# [1] = tested on: Caenorhabditis elegans N2; experiment: mean nematode size ln(EXT) after 48 h, plate-adjusted (DMSO control set to 6) (ln(EXT), control-adjusted); higher = larger nematodes / less growth inhibition; conditions: exposure time 48 h
# Outline: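 Chemical at 0.5–200 µM was tested on synchronised C. elegans N2 L1 larvae grown for 48 h at 20°C in K-medium with killed OP50 and 1% DMSO. Per-worm Biosort extinction, cleared of debris by a growth model, was natural-logged and averaged per well to give mean size. Plates were normalised by subtracting the vehicle control mean and adding 6.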
# [2] = tested on: Caenorhabditis elegans N2; experiment: lowest effective concentration for larval growth inhibition (size below effect threshold); higher = less potent; conditions: exposure time 48 h
# Outline: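 L1 larvae of C. elegans N2 (50 per 96-well) were grown in K-medium with killed bacteria and 1% DMSO, with the chemical at 0.5, 1, 5, 10, 50, 100 or 200 µM, for 48 h at 20°C. Per-worm extinction from the Biosort stood for size and was log-transformed into well means. For each chemical, the lowest effective concentration is the first dose where plate-adjusted mean size falls under the threshold and stays under it at the higher doses, using a threshold of 5.665.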
compound,measurement,setting,value
CCNc1nc(N)nc(Cl)n1 [6-Deisopropylatrazine],mean nematode size ln(EXT) (ln),[1]; 0.5 µM,6.12
same,mean nematode size ln(EXT) (ln),[1]; 1 µM,6.17
same,mean nematode size ln(EXT) (ln),[1]; 5 µM,6.08
same,mean nematode size ln(EXT) (ln),[1]; 10 µM,6.05
same,mean nematode size ln(EXT) (ln),[1]; 50 µM,5.95
same,mean nematode size ln(EXT) (ln),[1]; 100 µM,6
same,mean nematode size ln(EXT) (ln),[1]; 200 µM,5.94
same,lowest effective concentration,[2],> 200 µM
CCCc1cc(=O)[nH]c(=S)[nH]1 [6-Propyl-2-thiouracil],mean nematode size ln(EXT) (ln),[1]; 0.5 µM,5.8
same,mean nematode size ln(EXT) (ln),[1]; 1 µM,5.84
same,mean nematode size ln(EXT) (ln),[1]; 5 µM,5.82
same,mean nematode size ln(EXT) (ln),[1]; 10 µM,5.91
same,mean nematode size ln(EXT) (ln),[1]; 50 µM,5.8
same,mean nematode size ln(EXT) (ln),[1]; 100 µM,5.88
same,mean nematode size ln(EXT) (ln),[1]; 200 µM,5.74
same,lowest effective concentration,[2],> 200 µM
Nc1nc(=S)c2[nH]cnc2[nH]1 [6-Thioguanine],mean nematode size ln(EXT) (ln),[1]; 0.5 µM,5.81
same,mean nematode size ln(EXT) (ln),[1]; 1 µM,5.79
same,mean nematode size ln(EXT) (ln),[1]; 5 µM,5.86
same,mean nematode size ln(EXT) (ln),[1]; 10 µM,5.8
same,mean nematode size ln(EXT) (ln),[1]; 50 µM,5.78
same,mean nematode size ln(EXT) (ln),[1]; 100 µM,5.86
same,mean nematode size ln(EXT) (ln),[1]; 200 µM,5.72
same,lowest effective concentration,[2],> 200 µM
C#C[C@]1(O)CC[C@H]2[C@@H]3CCc4cc(O)ccc4[C@H]3CC[C@@]21C [17alpha-Ethynylestradiol],mean nematode size ln(EXT) (ln),[1]; 0.5 µM,6
same,mean nematode size ln(EXT) (ln),[1]; 1 µM,5.96
same,mean nematode size ln(EXT) (ln),[1]; 5 µM,5.9
same,mean nematode size ln(EXT) (ln),[1]; 10 µM,5.91
same,mean nematode size ln(EXT) (ln),[1]; 50 µM,6
same,mean nematode size ln(EXT) (ln),[1]; 100 µM,5.86
same,mean nematode size ln(EXT) (ln),[1]; 200 µM,5.92
same,lowest effective concentration,[2],> 200 µM
"C[C@](N)(Cc1ccc(O)c(O)c1)C(=O)O [(-)-3-(3,4-Dihydroxyphenyl)-2-methyl-L-alanine sesquihydrate]",mean nematode size ln(EXT) (ln),[1]; 0.5 µM,5.88
same,mean nematode size ln(EXT) (ln),[1]; 1 µM,5.88
same,mean nematode size ln(EXT) (ln),[1]; 5 µM,5.89
same,mean nematode size ln(EXT) (ln),[1]; 10 µM,5.89
same,mean nematode size ln(EXT) (ln),[1]; 50 µM,5.88
same,mean nematode size ln(EXT) (ln),[1]; 100 µM,5.87
same,mean nematode size ln(EXT) (ln),[1]; 200 µM,5.85
same,lowest effective concentration,[2],> 200 µM
COP(=O)(NC(C)=O)SC (stereo not drawn) [Acephate],mean nematode size ln(EXT) (ln),[1]; 0.5 µM,5.69
same,mean nematode size ln(EXT) (ln),[1]; 1 µM,5.74
same,mean nematode size ln(EXT) (ln),[1]; 5 µM,5.76
same,mean nematode size ln(EXT) (ln),[1]; 10 µM,5.69
same,mean nematode size ln(EXT) (ln),[1]; 50 µM,5.85
same,mean nematode size ln(EXT) (ln),[1]; 100 µM,5.77
same,mean nematode size ln(EXT) (ln),[1]; 200 µM,5.99
same,lowest effective concentration,[2],> 200 µM
CC(=O)Nc1ccc(O)cc1 [Acetaminophen],mean nematode size ln(EXT) (ln),[1]; 0.5 µM,6.04
same,mean nematode size ln(EXT) (ln),[1]; 1 µM,6.05
same,mean nematode size ln(EXT) (ln),[1]; 5 µM,6.04
same,mean nematode size ln(EXT) (ln),[1]; 10 µM,6.12
same,mean nematode size ln(EXT) (ln),[1]; 50 µM,6.09
same,mean nematode size ln(EXT) (ln),[1]; 100 µM,6.04
same,mean nematode size ln(EXT) (ln),[1]; 200 µM,5.74
same,lowest effective concentration,[2],> 200 µM
C/C(=N\C#N)N(C)Cc1ccc(Cl)nc1 [Acetamiprid],mean nematode size ln(EXT) (ln),[1]; 0.5 µM,5.78
same,mean nematode size ln(EXT) (ln),[1]; 1 µM,5.98
same,mean nematode size ln(EXT) (ln),[1]; 5 µM,6.03
same,mean nematode size ln(EXT) (ln),[1]; 10 µM,6.03
same,mean nematode size ln(EXT) (ln),[1]; 50 µM,6.16
same,mean nematode size ln(EXT) (ln),[1]; 100 µM,6.02
same,mean nematode size ln(EXT) (ln),[1]; 200 µM,5.96
same,lowest effective concentration,[2],> 200 µM
CCOCN(C(=O)CCl)c1c(C)cccc1CC [Acetochlor],mean nematode size ln(EXT) (ln),[1]; 0.5 µM,6.04
same,mean nematode size ln(EXT) (ln),[1]; 1 µM,6
same,mean nematode size ln(EXT) (ln),[1]; 5 µM,6.11
same,mean nematode size ln(EXT) (ln),[1]; 10 µM,6.25
same,mean nematode size ln(EXT) (ln),[1]; 50 µM,6.04
same,mean nematode size ln(EXT) (ln),[1]; 100 µM,6.05
same,mean nematode size ln(EXT) (ln),[1]; 200 µM,6.15
same,lowest effective concentration,[2],> 200 µM
CC(=O)c1ccccc1 [Acetophenone],mean nematode size ln(EXT) (ln),[1]; 0.5 µM,6
same,mean nematode size ln(EXT) (ln),[1]; 1 µM,6.01
same,mean nematode size ln(EXT) (ln),[1]; 5 µM,6.03
same,mean nematode size ln(EXT) (ln),[1]; 10 µM,6.08
same,mean nematode size ln(EXT) (ln),[1]; 50 µM,6.16
same,mean nematode size ln(EXT) (ln),[1]; 100 µM,6.11
same,mean nematode size ln(EXT) (ln),[1]; 200 µM,5.78
same,lowest effective concentration,[2],> 200 µM
O=C(O)c1cc(Oc2ccc(C(F)(F)F)cc2Cl)ccc1[N+](=O)[O-] [Acifluorfen],mean nematode size ln(EXT) (ln),[1]; 0.5 µM,5.84
same,mean nematode size ln(EXT) (ln),[1]; 1 µM,5.92
same,mean nematode size ln(EXT) (ln),[1]; 5 µM,5.76
same,mean nematode size ln(EXT) (ln),[1]; 10 µM,6.05
same,mean nematode size ln(EXT) (ln),[1]; 50 µM,6.01
same,mean nematode size ln(EXT) (ln),[1]; 100 µM,6.24
same,mean nematode size ln(EXT) (ln),[1]; 200 µM,5.94
same,lowest effective concentration,[2],> 200 µM
C=CC(N)=O [Acrylamide],mean nematode size ln(EXT) (ln),[1]; 0.5 µM,6
same,mean nematode size ln(EXT) (ln),[1]; 1 µM,5.68
same,mean nematode size ln(EXT) (ln),[1]; 5 µM,5.69
same,mean nematode size ln(EXT) (ln),[1]; 10 µM,5.76
same,mean nematode size ln(EXT) (ln),[1]; 50 µM,5.89
same,mean nematode size ln(EXT) (ln),[1]; 100 µM,5.76
same,mean nematode size ln(EXT) (ln),[1]; 200 µM,5.65
same,lowest effective concentration,[2],200 µM
CSC(C)(C)/C=N/O [Aldicarb oxime],mean nematode size ln(EXT) (ln),[1]; 0.5 µM,5.88
same,mean nematode size ln(EXT) (ln),[1]; 1 µM,5.88
same,mean nematode size ln(EXT) (ln),[1]; 5 µM,5.75
same,mean nematode size ln(EXT) (ln),[1]; 10 µM,5.85
same,mean nematode size ln(EXT) (ln),[1]; 50 µM,5.94
same,mean nematode size ln(EXT) (ln),[1]; 100 µM,5.94
same,mean nematode size ln(EXT) (ln),[1]; 200 µM,5.77
same,lowest effective concentration,[2],> 200 µM
CNC(=O)O/N=C/C(C)(C)SC [Aldicarb],mean nematode size ln(EXT) (ln),[1]; 0.5 µM,5.86
same,mean nematode size ln(EXT) (ln),[1]; 1 µM,5.88
same,mean nematode size ln(EXT) (ln),[1]; 5 µM,5.74
same,mean nematode size ln(EXT) (ln),[1]; 10 µM,5.74
same,mean nematode size ln(EXT) (ln),[1]; 50 µM,5.55
same,mean nematode size ln(EXT) (ln),[1]; 100 µM,5.25
same,mean nematode size ln(EXT) (ln),[1]; 200 µM,5.75
same,lowest effective concentration,[2],> 200 µM
COc1cc(S(=O)(=O)O)c(C)cc1N=Nc1c(O)ccc2cc(S(=O)(=O)O)ccc12 [Allura red],mean nematode size ln(EXT) (ln),[1]; 0.5 µM,5.71
same,mean nematode size ln(EXT) (ln),[1]; 1 µM,5.75
same,mean nematode size ln(EXT) (ln),[1]; 5 µM,5.76
same,mean nematode size ln(EXT) (ln),[1]; 10 µM,5.79
same,mean nematode size ln(EXT) (ln),[1]; 50 µM,5.72
same,mean nematode size ln(EXT) (ln),[1]; 100 µM,5.67
same,mean nematode size ln(EXT) (ln),[1]; 200 µM,5.86
same,lowest effective concentration,[2],> 200 µM
CCNc1nc(NC(C)C)nc(SC)n1 [Ametryn],mean nematode size ln(EXT) (ln),[1]; 0.5 µM,6.09
same,mean nematode size ln(EXT) (ln),[1]; 1 µM,6.82
same,mean nematode size ln(EXT) (ln),[1]; 5 µM,6.12
same,mean nematode size ln(EXT) (ln),[1]; 10 µM,6.27
same,mean nematode size ln(EXT) (ln),[1]; 50 µM,6.45
same,mean nematode size ln(EXT) (ln),[1]; 100 µM,6.38
same,mean nematode size ln(EXT) (ln),[1]; 200 µM,5.72
same,lowest effective concentration,[2],> 200 µM
CC(=O)Oc1ccccc1C(=O)O [Aspirin],mean nematode size ln(EXT) (ln),[1]; 0.5 µM,5.74
same,mean nematode size ln(EXT) (ln),[1]; 1 µM,5.85
same,mean nematode size ln(EXT) (ln),[1]; 5 µM,5.81
same,mean nematode size ln(EXT) (ln),[1]; 10 µM,6.1
same,mean nematode size ln(EXT) (ln),[1]; 50 µM,5.89
same,mean nematode size ln(EXT) (ln),[1]; 100 µM,5.89
same,mean nematode size ln(EXT) (ln),[1]; 200 µM,5.71
same,lowest effective concentration,[2],> 200 µM
COC(=O)NS(=O)(=O)c1ccc(N)cc1 [Asulam],mean nematode size ln(EXT) (ln),[1]; 0.5 µM,6.06
same,mean nematode size ln(EXT) (ln),[1]; 1 µM,5.99
same,mean nematode size ln(EXT) (ln),[1]; 5 µM,5.51
same,mean nematode size ln(EXT) (ln),[1]; 10 µM,6.04
same,mean nematode size ln(EXT) (ln),[1]; 50 µM,5.49
same,mean nematode size ln(EXT) (ln),[1]; 100 µM,5.99
same,mean nematode size ln(EXT) (ln),[1]; 200 µM,5.83
same,lowest effective concentration,[2],> 200 µM
CCNc1nc(Cl)nc(NC(C)C)n1 [Atrazine],mean nematode size ln(EXT) (ln),[1]; 0.5 µM,5.54
same,mean nematode size ln(EXT) (ln),[1]; 1 µM,5.72
same,mean nematode size ln(EXT) (ln),[1]; 5 µM,5.73
same,mean nematode size ln(EXT) (ln),[1]; 10 µM,5.07
same,mean nematode size ln(EXT) (ln),[1]; 50 µM,6.06
same,mean nematode size ln(EXT) (ln),[1]; 100 µM,6.06
same,mean nematode size ln(EXT) (ln),[1]; 200 µM,5.94
same,lowest effective concentration,[2],> 200 µM
CCCCC(CC)COC(=O)CCCCCCCC(=O)OCC(CC)CCCC (stereo not drawn) [Azelaic acid di(2-ethylhexyl) ester],mean nematode size ln(EXT) (ln),[1]; 0.5 µM,5.73
same,mean nematode size ln(EXT) (ln),[1]; 1 µM,5.62
same,mean nematode size ln(EXT) (ln),[1]; 5 µM,5.69
same,mean nematode size ln(EXT) (ln),[1]; 10 µM,5.67
same,mean nematode size ln(EXT) (ln),[1]; 50 µM,5.23
same,mean nematode size ln(EXT) (ln),[1]; 100 µM,5.44
same,mean nematode size ln(EXT) (ln),[1]; 200 µM,5.67
same,lowest effective concentration,[2],> 200 µM
ClC(Cl)c1ccccc1 [Benzal chloride],mean nematode size ln(EXT) (ln),[1]; 0.5 µM,5.81
same,mean nematode size ln(EXT) (ln),[1]; 1 µM,5.83
same,mean nematode size ln(EXT) (ln),[1]; 5 µM,5.86
same,mean nematode size ln(EXT) (ln),[1]; 10 µM,5.78
same,mean nematode size ln(EXT) (ln),[1]; 50 µM,5.85
same,mean nematode size ln(EXT) (ln),[1]; 100 µM,5.89
same,mean nematode size ln(EXT) (ln),[1]; 200 µM,5.68
same,lowest effective concentration,[2],> 200 µM
